Patent US9579378B2, “Combinations and uses thereof” (MORPHOSYS AG, priority 2012, dated 2017)

B1: MOR03087: anti-CD38 antibody whose amino acid sequence and DNA sequence is provided in FIG. 4; disclosed in U.S. Pat. No. 8,088,896 (antibody, listed as Homo sapiens, V domains shown)
VH: QVQLVESGGGLVQPGGSLRLSCAASGFTFSSYYMNWVRQAPGKGLEWVSGISGDPSNTYYADSVKGRFTISRDNSKNTLYLQMNSLRAEDTAVYYCARDLPLVYTGFAYWGQGTLVTVSS
VL: DIELTQPPSVSVAPGQTARISCSGDNLRHYYVYWYQQKPGQAPVLVIYGDSKRPSGIPERFSGSNSGNTATLTISGTQAEDEADYYCQTYTGGASLVFGGGTKLTVLGQ
modifications: MOR202 Variable Heavy Domain; MOR202 Variable Light Domain

Key:
[1] = test system: Human Multiple Myeloma NCI-H929 cells; assay: Orthotopic osteolysis model, microCT analysis of tibia (bone lysis); format: in vivo, SCID mice; details: for Total Bone Lysis: microCT, day 42, vehicle control = 100.0, Melphalan 4 mg/kg i.v., MOR03087 3 mg/kg i.p., 3x weekly for 6 weeks, data of FIG. 1
[2] = test system: Human Multiple Myeloma NCI-H929 cells; assay: M-Protein concentration in sera (ELISA) on day 42 of the orthotopic osteolysis model; format: in vivo, SCID mice; details: sera at termination (day 42), versus mice that received solvent diluent only, FIG. 3

Row | Molecule | Bone lysis (microCT, FIG. 2) ([1]; Melphalan 8 mg/kg alone, i.v. 3x weekly for 6 weeks, day 42) | Total Bone Lysis [1] [%] | Protein M concentration in sera [2]
1 | N[C@@H](Cc1ccc(N(CCCl)CCCl)cc1)C(=O)O [Melphalan] | reduced bone lysis completely | 61.3 | significantly reduced
2 | B1 | – | 27.6 | significantly reduced
